The values below come from patent publication US12264185B2, “Stabilized BCL9 peptides for treatment of aberrant Wnt signaling” (WntRx Pharmaceuticals Inc., priority 2015, dated 2025).

The target of one data set is T1, β-catenin (Homo sapiens, UniProt P35222).
T1 sequence (P35222 1-781): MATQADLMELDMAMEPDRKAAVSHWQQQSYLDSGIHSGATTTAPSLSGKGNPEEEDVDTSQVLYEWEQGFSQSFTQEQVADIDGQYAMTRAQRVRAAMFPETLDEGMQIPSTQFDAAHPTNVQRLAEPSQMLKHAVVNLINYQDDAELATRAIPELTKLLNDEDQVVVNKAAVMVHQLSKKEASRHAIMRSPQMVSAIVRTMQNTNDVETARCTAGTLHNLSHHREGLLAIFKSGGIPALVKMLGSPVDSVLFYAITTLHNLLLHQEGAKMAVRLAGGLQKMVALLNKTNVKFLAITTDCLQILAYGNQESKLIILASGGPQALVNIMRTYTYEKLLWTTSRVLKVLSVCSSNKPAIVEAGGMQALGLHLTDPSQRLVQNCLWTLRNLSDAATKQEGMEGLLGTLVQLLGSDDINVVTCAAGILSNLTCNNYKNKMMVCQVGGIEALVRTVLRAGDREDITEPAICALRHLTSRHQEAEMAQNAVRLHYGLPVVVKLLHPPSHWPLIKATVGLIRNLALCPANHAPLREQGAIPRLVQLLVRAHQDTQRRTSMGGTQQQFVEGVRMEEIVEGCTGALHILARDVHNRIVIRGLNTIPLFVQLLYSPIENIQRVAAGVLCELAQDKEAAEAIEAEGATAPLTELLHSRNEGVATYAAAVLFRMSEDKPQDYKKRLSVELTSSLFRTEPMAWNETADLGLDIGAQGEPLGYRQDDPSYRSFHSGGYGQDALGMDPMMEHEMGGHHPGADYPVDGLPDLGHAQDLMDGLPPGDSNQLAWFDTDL
The data set is described as follows: HTRF binding assay. The following applies: WX-024 coupled to biotin. An excerpt: HTRF assays provide a means of assaying protein-protein interactions in a high-throughput format, as discussed in Degorce et al., Curr Chemical Genom. 3, 22-32 (2009). In an HTRF assay to measure a protein-protein interaction, binding of 2 proteins brings an HTRF donor and acceptor fluorophore into close proximity and generates the fluorescence energy transfer (FRET) signal. Each protein of the interaction is associated with the donor or the acceptor by an antibody reaction.
FIG. 6A provides a schematic to depict the basis of the HTRF assay. In the HTRF assay for β-catenin (Cisbio), β-catenin is bound by an XL665-coupled antibody (ab) against β-catenin. See Degorce (2009). β-catenin bound to an XL665-coupled antibody can interact with its binding partners, such as BCL9 or BCL9 peptides.
SA is a high-affinity binding partner to biotin and will tightly bind the SA-europium cryptate to the biotinylated stabilized polypeptides. Europium cryptate is an energy donor for an HTRF reaction. When not closely bound, there is no energy transfer between europium cryptate and XL665.
Histidine-tagged β-catenin, BCL9 peptide labeled with biotin, europium (Eu) labeled monoclonal antibody for histidine tag, and SA-XL665 were used in the HTRF assay. […] The reaction was incubated at room temperature for 1 hour and then the plate was read.
(In general: TR-FRET usually uses a lanthanide donor and a delayed reading to cut background.)

Data set [1] in a line: Preliminary solubility study. In kind it is physicochemical. The following applies: water, DMSO, and PBS.
In a further data set the test system is JAK/STAT. The data set is described as follows: JAK/STAT transcription assay (SIE-bla ME-180 cell line). In kind it is cell-based. An excerpt:
(§1) In these assays, the trifluoroacetic salt form of WX-024 was used.

The next data set deals with TNF-alpha/JNK. The data set is described as follows: TNF-alpha/JNK transcription assay (AP1-bla ME-180 cell line). In kind it is cell-based.
From the text: as §1

The subject of the next data set is CT26 cells. The data set is described as follows: cells. The protocol:
CT26 cells were grown in F-bottom plates over 5 days. […] CellTiterGlo (Promega) cell viability assay. […] Doxorubicin is a known inhibitor of cell growth and was included as a control.

Data set [2] in a line: Toxicology study, 14 days i.v., female balb/c mice. In kind it is in vivo. Here is the method:
At the end of the study, the mice were sacrificed and various major organs were collected. The tissue samples were treated and processed as described in Example 5.5. […] The body weight of each moue was monitored throughout the study and the average body weight of each treatment group is shown in FIG. 30B. […] At the end of the study, blood from each mouse was also collected for serum chemistry and hematological analysis (complete blood cell count analysis).

The nature of data set [3]: Pharmacokinetics in male ICR mice. The note with it: mouse, plasma, 5 mg/kg.
Procedure: The tail vein was used for i.v. injections. […] Following injections, blood samples were obtained via the retro-orbital vein at 5 min, 1, 2, 4, 6, 8, 12, and 24 hours postdose. Plasma was obtained from the blood samples following mixing with sodium heparin and centrifugation.
LC analysis was done using an Agilent 100 HPLC. MS analysis was done using an AB Sciex API 4000. Calibration standards were prepared by serial dilution.
The maximum observed concentration (Cmax), terminal half-life (T1/2), total body clearance (CL), volume of distribution (Vz), area under the curve from the time of dosing to the last measurable concentration (AUC0-t), area under the curve from the time of dosing extrapolated to infinity (AUC0-inf), and bioavailability were calculated using noncompartmental analysis modules in the FDA-certified pharmacokinetic program WinNonlin Professional v5.2 (Pharsight).
Briefly, the mice were administered 1 mg/kg or 5 mg/kg intravenously, or 5 mg/kg intraperitoneally. Blood samples were collected at 15 min, 1, 2, 3, 6, 8, 12, and 24 hours post administration.

Several values for one entry are separate records, joined by “and”; a condition that tells them apart may be missing. Equal entries are not always repeated. Where two headings read alike, the source gives them in different places.

One may read the Kd as the equilibrium constant for the complex coming apart. A lower Kd goes with a tighter complex. By solubility is commonly meant the dissolved amount per volume that the medium holds. Low readings indicate little dissolved substance, high ones much dissolved substance. The term bioavailability denotes the share of a dose that reaches the circulation, judged against a reference dose that is usually intravenous. The term Cmax denotes the highest concentration seen after dosing.

As to `CC[C@H](C)[C@@H]1NC(=O)[C@@](C)(NC(=O)[C@H](CCCNC(=N)N)NC(=O)[C@H](CC(C)C)NC(=O)[C@@H](NC(=O)[C@H](CCC(N)=O)NC(=O)[C@H](CC(C)C)NC(C)=O)[C@@H](C)O)CCCC=CCCC[C@@](C)(C(=O)N[C@@H](CC(C)C)C(=O)N[C@@H](Cc2ccc3ccccc3c2)C(N)=O)NC(=O)[C@H](CCCNC(=N)N)NC(=O)[C@H](CCC(N)=O)NC1=O` [WX-024, LQTLRXaa1IQRXaa2L], at β-catenin, binding was put at a Kd of 0.00421 µM. Moreover, in data set [1], the solubility was at least 1000 µg/mL. Also, the IC50 in the data set with JAK/STAT (Example 4.5, read-out: IC50, JAK/STAT transcription assay) was above 10 µM; in the data set on JAK/STAT (summary, Example 6, read-out: IC50, JAK/STAT reporter assay), above 0.1 µM; in the data set on TNF-alpha/JNK (AP1-bla ME-180, TNF-alpha stimulation, trifluoroacetic salt form, read-out: IC50 (nM), TNP-alpha/JNK pathway), above 1000 nM; in the data set on TNF-alpha/JNK (Example 4.5, read-out: IC50, TNF-alpha/JNK transcription assay) it was above 10000 nM; with TNF-alpha/JNK (summary, Example 6, read-out: IC50, TNF-α/JNK reporter assay), above 100 nM; in the data set with CT26 cells it was 1.75 µM. Further, the “blood cell count profile vs vehicle” value in data set [2] (20 mg/kg i.v. daily) is given as “did not differ significantly”. Further, the average body weight result in data set [2] (10, 15 or 20 mg/kg i.v. daily) was “stabilized and was maintained throughout the study”. For the same molecule, the food consumption result in data set [2] (10, 15 or 20 mg/kg i.v. daily) is given as “recovered to near baseline levels with continued treatment”. In data set [3] (ip), the bioavailability worked out at 73.6%. Further, the Cmax in data set [3] (iv) was 47400 ng/mL and > 30 µM.
